Reference: patent publication US20230233425A1, “USE OF VOLATILE COMPOSITIONS TO LIMIT OR ELIMINATE THE PERCEPTION OF MALODOR” (Firmenich SA, priority 2017, published 2023)
“And” between values parts separate entries of the source, which are not always exact repeats. Identical values can stand only once. Like-named read-outs stand apart in the source and are kept apart here. Marks after values point to notes of the source that are not given here.

What was measured:
[1] = system: geonol earthy/moss odor perception; assay: Human sensory performance of test compounds with and without geonol; assay type: in vivo; conditions: for % Earthy/Moss Odor: Test Compound Only
Outline: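 Panelists first learned the earthy/moss quality from a geonol-only reference, then rated pleasantness, earthy/moss intensity and overall intensity of geonol alone, antagonist alone, and geonol mixed with isointense or low-intensity antagonist on a 0-10 linear scale. Samples were presented in glass jars in randomized order with two-minute intervals.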

Olfr749 = target: T1, Olfr749 (Mus musculus, UniProt E9Q438); assay: Indole antagonist dose-response, cAMP HTRF in HEK293T, vs indole EC80; assay type: cell-based; conditions: Table 23
T1 construct: Flag; Rho tag; expressed in transfected cells
T1 sequence (E9Q438 1-313): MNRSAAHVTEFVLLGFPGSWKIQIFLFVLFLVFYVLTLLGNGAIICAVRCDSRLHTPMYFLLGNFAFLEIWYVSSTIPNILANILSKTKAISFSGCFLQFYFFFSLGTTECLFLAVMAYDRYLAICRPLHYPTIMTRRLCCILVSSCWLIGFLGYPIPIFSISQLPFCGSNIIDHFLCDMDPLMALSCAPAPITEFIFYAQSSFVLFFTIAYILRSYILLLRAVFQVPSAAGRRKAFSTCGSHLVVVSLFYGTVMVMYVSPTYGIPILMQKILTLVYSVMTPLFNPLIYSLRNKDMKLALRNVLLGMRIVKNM
Procedure: (§1) Functional dose-response experiments were performed to identify compounds capable of antagonizing indole-sensitive receptors previously identified (U.S. Pat. No. 9,914,760 B2). Using a cell-based assay, mouse receptor Olfr738, Olfr739, Olfr740, Olfr741, 0fr742, Olfr743, Olfr744, Olfr746, Olfr748 and Olfr749 were tested in an HEK293T cell line wherein the endogenous RTP1 gene has been activated and the odorant receptor chaperone was expressed (described in WO2016201153A1). The receptor genes were tagged with a Flag-Rho tag combination. Receptor genes were co-transfected with the canonical olfactory human G-protein alpha subunit Golf gene. Co-expression of the human Golf activates the Gs transduction pathway that leads to an internal cAMP increase upon binding to the appropriate ligand (indole here). Odorant-induced activity was detected by measuring the cAMP increase in the cytosol using an HTRF based kit (CisBio, cAMP dynamic 2 kit, cat. 62AM4PEJ). The receptors were exposed to binary mixtures of increasing concentrations of the test compounds in the presence of a potent activation concentration of indole (EC80) for each receptor. […] All the compounds listed decreased the indole induced activity of at least one receptor.

Olfr743 = Olfr743 (Mus musculus, UniProt L7N1Y2); assay: as above; assay type: cell-based; conditions: Table 23
Sequence of Olfr743 (L7N1Y2 entry or part of it): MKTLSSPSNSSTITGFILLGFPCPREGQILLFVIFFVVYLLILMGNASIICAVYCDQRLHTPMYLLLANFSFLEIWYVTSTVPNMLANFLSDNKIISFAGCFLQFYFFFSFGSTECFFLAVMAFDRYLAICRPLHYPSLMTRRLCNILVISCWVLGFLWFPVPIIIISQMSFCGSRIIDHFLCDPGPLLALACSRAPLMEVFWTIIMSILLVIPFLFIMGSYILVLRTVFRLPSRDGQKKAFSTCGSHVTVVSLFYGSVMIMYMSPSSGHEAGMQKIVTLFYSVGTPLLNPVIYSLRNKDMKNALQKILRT
Procedure: as §1

Olfr746 = target: T2, Olfr746 (Mus musculus, UniProt E9Q840); assay: as above; assay type: cell-based; conditions: Table 23
T2 construct: Flag; Rho tag; expressed in transfected cells
T2 sequence (E9Q840 1-314): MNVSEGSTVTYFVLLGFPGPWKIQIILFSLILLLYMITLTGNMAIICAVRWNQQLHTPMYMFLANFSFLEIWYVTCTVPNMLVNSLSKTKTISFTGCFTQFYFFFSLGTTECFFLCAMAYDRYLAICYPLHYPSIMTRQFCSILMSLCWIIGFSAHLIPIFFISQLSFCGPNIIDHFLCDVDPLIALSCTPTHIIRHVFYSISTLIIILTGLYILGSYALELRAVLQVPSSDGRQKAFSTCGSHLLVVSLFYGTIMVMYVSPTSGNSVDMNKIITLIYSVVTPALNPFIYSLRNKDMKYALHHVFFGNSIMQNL
Procedure: as §1

Olfr742 = Olfr742 (Mus musculus, UniProt A2RTP5); assay: as above; assay type: cell-based; conditions: vs indole EC80; for IC50: read-out: Olfr742 IC50; for Emax: HEK-293T, read-out: Olfr742 % Inhibition
Sequence of Olfr742 (A2RTP5 entry or part of it): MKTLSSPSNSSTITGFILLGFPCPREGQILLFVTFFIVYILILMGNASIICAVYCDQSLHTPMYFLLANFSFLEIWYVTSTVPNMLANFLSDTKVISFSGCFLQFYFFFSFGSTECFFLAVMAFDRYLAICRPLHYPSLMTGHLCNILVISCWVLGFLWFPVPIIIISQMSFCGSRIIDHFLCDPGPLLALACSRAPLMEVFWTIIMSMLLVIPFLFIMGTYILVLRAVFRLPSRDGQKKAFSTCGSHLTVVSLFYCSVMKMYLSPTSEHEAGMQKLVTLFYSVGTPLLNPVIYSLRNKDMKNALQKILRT
Procedure: (§2) Using a cell-based assay, mouse receptor Olfr738, Olfr739, Olfr740, Olfr741, 0fr742, Olfr743, Olfr744, Olfr746, Olfr748 and Olfr749 were tested in an HEK293T cell line wherein the endogenous RTP1 gene has been activated and the odorant receptor chaperone was expressed (described in WO2016201153A1). The receptor genes were tagged with a Flag-Rho tag combination. Receptor genes were co-transfected with the canonical olfactory human G-protein alpha subunit Golf gene. Co-expression of the human Golf activates the Gs transduction pathway that leads to an internal cAMP increase upon binding to the appropriate ligand (indole here). Odorant-induced activity was detected by measuring the cAMP increase in the cytosol using an HTRF based kit (CisBio, cAMP dynamic 2 kit, cat. 62AM4PEJ).

Olfr740 = Olfr740 (Mus musculus, UniProt E9PV79); assay: as above; assay type: cell-based; conditions: vs indole EC80; for IC50: read-out: Olfr740 IC50; for Emax: HEK-293T, read-out: Olfr740 % Inhibition
Sequence of Olfr740 (E9PV79 entry or part of it): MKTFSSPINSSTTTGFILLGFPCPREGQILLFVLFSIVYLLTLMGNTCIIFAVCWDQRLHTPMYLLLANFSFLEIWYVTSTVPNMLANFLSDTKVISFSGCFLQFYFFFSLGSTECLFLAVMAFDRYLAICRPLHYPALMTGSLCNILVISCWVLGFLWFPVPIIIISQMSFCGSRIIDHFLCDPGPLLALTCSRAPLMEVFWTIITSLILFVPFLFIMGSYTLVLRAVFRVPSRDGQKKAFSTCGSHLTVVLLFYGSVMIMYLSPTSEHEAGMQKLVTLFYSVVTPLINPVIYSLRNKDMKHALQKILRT
Procedure: as §2

Olfr741 = Olfr741 (Mus musculus, UniProt L7N1Y5); assay: as above; assay type: cell-based
Sequence of Olfr741 (L7N1Y5 entry or part of it): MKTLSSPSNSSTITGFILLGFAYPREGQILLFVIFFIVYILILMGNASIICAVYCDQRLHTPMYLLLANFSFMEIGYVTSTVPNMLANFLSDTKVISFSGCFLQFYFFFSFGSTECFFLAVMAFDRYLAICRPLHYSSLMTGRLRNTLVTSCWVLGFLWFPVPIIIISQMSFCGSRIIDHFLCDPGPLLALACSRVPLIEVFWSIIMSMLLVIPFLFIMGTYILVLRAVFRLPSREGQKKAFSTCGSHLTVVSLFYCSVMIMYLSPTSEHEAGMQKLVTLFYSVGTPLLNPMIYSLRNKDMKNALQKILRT
Procedure: as §2

Olfr738 = Olfr738 (Mus musculus, UniProt L7N1X7); assay: as above; assay type: cell-based; conditions: vs indole EC80; for IC50: read-out: Olfr738 IC50
Sequence of Olfr738 (L7N1X7 entry or part of it): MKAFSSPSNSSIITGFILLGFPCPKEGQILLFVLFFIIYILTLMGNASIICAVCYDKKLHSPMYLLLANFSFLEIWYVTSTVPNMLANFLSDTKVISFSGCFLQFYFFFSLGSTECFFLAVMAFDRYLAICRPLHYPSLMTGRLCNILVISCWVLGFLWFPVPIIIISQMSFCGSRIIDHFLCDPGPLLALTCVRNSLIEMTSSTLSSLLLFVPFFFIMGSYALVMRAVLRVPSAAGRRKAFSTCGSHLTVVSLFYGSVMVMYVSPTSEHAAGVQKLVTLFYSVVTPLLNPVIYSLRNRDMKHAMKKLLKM
Procedure: as §2

Olfr748 = Olfr748 (Mus musculus, UniProt E9Q9Z0); assay: as above; assay type: cell-based; conditions: Table 23
Sequence of Olfr748 (E9Q9Z0 entry or part of it): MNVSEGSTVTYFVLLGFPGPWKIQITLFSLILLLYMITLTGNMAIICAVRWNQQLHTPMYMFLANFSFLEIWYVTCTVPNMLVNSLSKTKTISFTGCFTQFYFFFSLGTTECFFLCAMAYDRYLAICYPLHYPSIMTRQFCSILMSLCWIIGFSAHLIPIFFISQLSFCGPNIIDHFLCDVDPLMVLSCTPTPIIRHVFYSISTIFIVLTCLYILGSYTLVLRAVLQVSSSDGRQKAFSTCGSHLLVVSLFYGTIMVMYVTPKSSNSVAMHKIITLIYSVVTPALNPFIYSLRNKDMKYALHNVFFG
Procedure: as §2

[2] = system: geonol malodor (earthy/moss odor) perception; assay: Sensory evaluation of geonol earthy/moss odor in iso-intense binary mixtures (glass jars); assay type: in vivo, human; conditions: iso-intense binary mixture
Description: Sensory Evaluation: Five 16 oz glass jars containing either REF (geonol only), geonol only control, antagonist only, mixture of geonol and isointense antagonist, or mixture of geonol and low intensity antagonist were presented to the panelists (last four samples were randomized across panelists). The panelists were asked to familiarize themselves with the earthy/moss odor quality from the REF jar first, then rate the pleasantness, earthy/moss odor intensity and overall odor intensity of the next four samples on a 0-10 linear scale. The inter-stimulus interval between the samples was two minutes to avoid adaptation.

[3] = system: OR11A1, or the OR2M3 olfactory receptor; assay: Geonol olfactory receptor antagonist cell-based screening, inhibitory dose-response vs geonol EC80; design: species or system human; conditions: geonol at EC80; for IC50: read-out: IC50
[4] = target: 1-octen-3-ol receptors OR2W1, Olfr93, Olfr120, Olfr398; assay: Antagonists of 1-octen-3-ol receptors (Example 11); assay type: cell-based, mouse and human; design: Inhibition(%): concentration or dose not given beside the values; conditions: Table 19
[5] = system: 1-octen-3-ol mushroom/earthy/fungal odor perception; assay: Human sensory performance of test compounds with and without 1-octen-3-ol; assay type: in vivo
Olfr744 = target: T3, Olfr744 (Mus musculus, UniProt Q7TRM0); assay: Indole antagonist dose-response, cAMP HTRF in HEK293T, vs indole EC80; assay type: cell-based; conditions: Table 23
T3 construct: Flag; Rho tag; expressed in transfected cells
T3 sequence (Q7TRM0 1-323): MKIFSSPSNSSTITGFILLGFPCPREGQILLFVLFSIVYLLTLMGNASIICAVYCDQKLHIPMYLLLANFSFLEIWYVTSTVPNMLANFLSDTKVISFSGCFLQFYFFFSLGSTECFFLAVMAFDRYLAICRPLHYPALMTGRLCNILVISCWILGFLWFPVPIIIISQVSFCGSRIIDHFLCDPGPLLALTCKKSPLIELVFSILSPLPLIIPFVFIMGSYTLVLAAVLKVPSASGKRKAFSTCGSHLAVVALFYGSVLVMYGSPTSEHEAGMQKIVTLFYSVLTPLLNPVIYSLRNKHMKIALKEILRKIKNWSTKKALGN
Procedure: as §1

Olfr739 = Olfr739 (Mus musculus, UniProt E9Q1P0); assay: as above; assay type: cell-based
Sequence of Olfr739 (E9Q1P0 entry or part of it): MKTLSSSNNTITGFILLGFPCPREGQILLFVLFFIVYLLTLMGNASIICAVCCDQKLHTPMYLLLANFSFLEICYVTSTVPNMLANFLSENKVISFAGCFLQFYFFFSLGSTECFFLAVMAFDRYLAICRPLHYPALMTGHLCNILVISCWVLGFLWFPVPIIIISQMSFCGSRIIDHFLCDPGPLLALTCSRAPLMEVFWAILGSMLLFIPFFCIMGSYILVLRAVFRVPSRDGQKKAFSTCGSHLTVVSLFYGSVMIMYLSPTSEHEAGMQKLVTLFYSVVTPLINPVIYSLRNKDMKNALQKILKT
Procedure: as §1

[6] = system: geonol receptors Olfr339, Olfr1487, Olfr1A1, OR11A1, Olfr96; assay: Antagonists of geonol receptors (Example 11); assay type: cell-based, mouse and human; design: Inhibition(%): concentration or dose not given beside the values; conditions: Table 18
[7] = Low Dilution Test Compound + Geonol (0.1%)
[8] = Medium Dilution Test Compound + Geonol (0.1%)
[9] = Table 22, second listing of the same compounds
[10] = Table 22, first listing (r7-r45)

Molecule	% Earthy/Moss Odor Remaining [1, 7] [%]	% Earthy/Moss Odor Remaining [1, 8] [%]	% Earthy/Moss Odor [1] [%]	IC50 (Olfr749)	Olfr749 % Inhibition (Olfr749) [%]	IC50 (Olfr743)	Olfr743 % Inhibition (Olfr743)	IC50 (Olfr746) [µM]	Olfr746 % Inhibition (Olfr746) [%]	Olfr742 % Inhibition (Olfr742; Table 22, first listing) [%]	IC50 (Olfr742; Table 22, first listing) [µM]	Olfr740 % Inhibition (Olfr740; Table 22, first listing) [%]	IC50 (Olfr740; Table 22, first listing) [µM]	IC50 (Olfr741; Table 22, first listing) [µM]	Olfr741 % Inhibition (Olfr741; Table 22, first listing) [%]	IC50 (Olfr741; [9]) [µM]	Olfr741 % Inhibition (Olfr741; [9]) [%]	Olfr738 % Inhibition (Olfr738; Table 22, first listing) [%]	IC50 (Olfr738; Table 22, first listing) [µM]	Olfr738 % Inhibition (Olfr738; [9]) [%]	other results
1-(3,3-dimethylcyclohexen-1-yl)pent-4-en-1-one; 1-(5,5-dimethylcyclohexen-1-yl)pent-4-en-1-one	85.80	72.30	34.50	46.2 µM	90.61	210 µM	59.11%	89.4	94.28	146.91	4.3	179.31	1.68	131	124.57	81.6	66.47	33.49	6.29	59.11	Olfr742 % Inhibition (Olfr742; [9]): 90.61%; Olfr740 % Inhibition (Olfr740; [9]): 94.28%; IC50 (Olfr748): 81.6 µM; Olfr748 % Inhibition (Olfr748): 66.47%; % Remaining in human sensory tests [2]: 58* %; IC50 [3]: 111 µM and 148 µM
3-(4-hydroxy-4-methylpentyl)cyclohex-3-ene-1-carbaldehyde; 4-(4-hydroxy-4-methylpentyl)cyclohex-3-ene-1-carbaldehyde	85.70	78.70	15.40	233 µM	62.05			373	43.95	41.42	182	72.15	185			213	48.14	14.67	166		Olfr742 % Inhibition (Olfr742; [9]): 62.05%; Olfr740 % Inhibition (Olfr740; [9]): 43.95%; IC50 (Olfr748): 213 µM; Olfr748 % Inhibition (Olfr748): 48.14%; % Inhibition [3]: 60%; IC50 [3]: 217 µM
4-(2,6,6-trimethylcyclohexen-1-yl)but-3-en-2-one; 4-(2,6,6-trimethylcyclohex-2-en-1-yl)but-3-en-2-one	73.40	70.30	27.10	75.8 µM and 76 µM		275 µM and 159 µM	114.78% and 112.64%														IC50 [4]: 146 µM; Inhibition(%) [4]: 79%; % Mushroom/Earthy/Fungal Odor Remaining ([5]; Low Dilution Test Compound + 1-octen-3-ol (0.15%)): 94.80%; % Mushroom/Earthy/Fungal Odor Remaining ([5]; Medium Dilution Test Compound + 1-octen-3-ol (0.15%)): 73.90%; % Mushroom/Earthy/Fungal Odor ([5]; Test Compound Only): 20.30%; IC50 (Olfr744): 125 µM and 159 µM; Olfr744 % Inhibition (Olfr744): 78.23% and 77.99%; % Remaining in human sensory tests [2]: 59* %
6(8)-ISOPROPYLQUINOLINE [isopropyl quinoline]	99.60	104.70	54.70			119 µM	39.62%			72.34	86.6	148.06	40.9	91.6	54.55			20.66	120	39.62	IC50 (Olfr744): 102 µM; Olfr744 % Inhibition (Olfr744): 116.59%; IC50 (Olfr739; Table 22, first listing): 61.3 µM; Olfr739 % Inhibition (Olfr739; Table 22, first listing): 74.96%; Olfr739 % Inhibition (Olfr739; [9]): 116.59%; % Remaining in human sensory tests [2]: 110%; IC50 [3]: 400 µM
C=CCCC(=O)C1=CCCC(C)(C)C1 [1-(5,5-dimethylcyclohexen-1-yl)pent-4-en-1-one]								224	58.87												Emax (Olfr740; Table 22, first listing): 91.2%; Emax (Olfr740; [9]): 58.9%; IC50 (Olfr740; [10]): 63.6 µM; IC50 [6]: 220 µM; Inhibition(%) [6]: 40%
c1nc2c(o1)CCCCCCCCCC2 [4,5,6,7,8,9,10,11,12,13-decahydrocyclododeca[d][1,3]oxazole]				70 µM	57.85	58.9 µM	31.68%							33.7	62.10	216	12.61	93.54		31.68	IC50 [4]: 38 µM; Inhibition(%) [4]: 77%; IC50 (Olfr744): 117 µM; Olfr744 % Inhibition (Olfr744): 38.37%; Olfr739 % Inhibition (Olfr739; Table 22, first listing): 61.91%; IC50 (Olfr739; [10]): 24.1 µM; Olfr739 % Inhibition (Olfr739; [9]): 38.37%; Emax (Olfr742; Table 22, first listing): 59.7%; Emax (Olfr742; [9]): 57.9%; IC50 (Olfr742; [10]): 26.8 µM; Emax (Olfr740; Table 22, first listing): 102%; IC50 (Olfr740; [10]): 5.52 µM; IC50 (Olfr738; [10]): 9.26 µM; IC50 (Olfr748): 216 µM; Olfr748 % Inhibition (Olfr748): 12.61%
